Data reported in PubChem BioAssay (NCI).
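Method: 48-hour compound exposure of cells in 96-well plates, five concentrations, linear interpolation of endpoints. The concentration for 50% growth inhibition is given as GI50. TGI denotes the concentration required for complete inhibition of growth.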

What was measured:
Experiment in all cases: NCI-60 cell line screen, 48 h
786-0 renal = test system: 786-0 renal
A498 renal = test system: A498 renal
A549 NSCLC = test system: A549 NSCLC
ACHN renal = test system: ACHN renal
BT-549 breast = test system: BT-549 breast
CAKI-1 renal = test system: CAKI-1 renal
CCRF-CEM leukemia = test system: CCRF-CEM leukemia
COLO 205 colon = test system: COLO 205 colon
DU-145 prostate = test system: DU-145 prostate
EKVX NSCLC = test system: EKVX NSCLC
HCC-2998 colon = test system: HCC-2998 colon
HCT-116 colon = test system: HCT-116 colon
HCT-15 colon = test system: HCT-15 colon
HL-60(TB) leukemia = test system: HL-60(TB) leukemia
HOP-62 NSCLC = test system: HOP-62 NSCLC
HOP-92 NSCLC = test system: HOP-92 NSCLC
HS 578T breast = test system: HS 578T breast
HT29 colon = test system: HT29 colon
IGROV1 ovarian = test system: IGROV1 ovarian
K-562 leukemia = test system: K-562 leukemia
KM12 colon = test system: KM12 colon
LOX IMVI melanoma = test system: LOX IMVI melanoma
M14 melanoma = test system: M14 melanoma
MALME-3M melanoma = test system: MALME-3M melanoma
MCF7 breast = test system: MCF7 breast
MDA-MB-231 breast = test system: MDA-MB-231 breast
MDA-MB-435 = test system: MDA-MB-435
MOLT-4 leukemia = test system: MOLT-4 leukemia
NCI-H226 lung = test system: NCI-H226 lung
NCI-H23 lung = test system: NCI-H23 lung
NCI-H460 lung = test system: NCI-H460 lung
NCI-H522 lung = test system: NCI-H522 lung
NCI/ADR-RES ovarian = test system: NCI/ADR-RES ovarian
OVCAR-3 ovarian = test system: OVCAR-3 ovarian
OVCAR-4 ovarian = test system: OVCAR-4 ovarian
OVCAR-5 ovarian = test system: OVCAR-5 ovarian
OVCAR-8 ovarian = test system: OVCAR-8 ovarian
PC-3 prostate = test system: PC-3 prostate
RPMI-8226 leukemia = test system: RPMI-8226 leukemia
RXF 393 renal = test system: RXF 393 renal
SF-268 CNS = test system: SF-268 CNS
SF-295 CNS = test system: SF-295 CNS
SF-539 CNS = test system: SF-539 CNS
SK-MEL-2 melanoma = test system: SK-MEL-2 melanoma
SK-MEL-28 melanoma = test system: SK-MEL-28 melanoma
SK-MEL-5 melanoma = test system: SK-MEL-5 melanoma
SK-OV-3 ovarian = test system: SK-OV-3 ovarian
SN12C renal = test system: SN12C renal
SNB-19 CNS = test system: SNB-19 CNS
SNB-75 CNS = test system: SNB-75 CNS
SR leukemia = test system: SR leukemia
SW-620 colon = test system: SW-620 colon
T-47D breast = test system: T-47D breast
TK-10 renal = test system: TK-10 renal
U251 CNS = test system: U251 CNS
UACC-257 melanoma = test system: UACC-257 melanoma
UACC-62 melanoma = test system: UACC-62 melanoma
UO-31 renal = test system: UO-31 renal

SMILES: COC1=CC(c2ccc[nH]2)=N/C1=C\c1[nH]c(C)c(C(=O)OC(C)C)c1C
- GI50 (786-0 renal): 47.6 nM
- TGI (786-0 renal): 1030 nM
- GI50 (A498 renal): 255 nM
- TGI (A498 renal): 1920 nM
- GI50 (A549 NSCLC): 50.5 nM
- TGI (A549 NSCLC): 1050 nM
- GI50 (ACHN renal): 45.6 nM
- TGI (ACHN renal): 1200 nM
- GI50 (BT-549 breast): 61 nM
- TGI (BT-549 breast): 2680 nM
- GI50 (CAKI-1 renal): 15.8 nM
- TGI (CAKI-1 renal): 236 nM
- GI50 (CCRF-CEM leukemia): 31.6 nM
- TGI (CCRF-CEM leukemia): > 100000 nM
- GI50 (COLO 205 colon): 73.3 nM
- TGI (COLO 205 colon): 1460 nM
- GI50 (DU-145 prostate): 60.9 nM
- TGI (DU-145 prostate): 6470 nM
- GI50 (EKVX NSCLC): 79.9 nM
- TGI (EKVX NSCLC): 2310 nM
- GI50 (HCC-2998 colon): 48.5 nM
- TGI (HCC-2998 colon): 1360 nM
- GI50 (HCT-116 colon): 27.4 nM
- TGI (HCT-116 colon): 1070 nM
- GI50 (HCT-15 colon): 26 nM
- TGI (HCT-15 colon): 1140 nM
- GI50 (HL-60(TB) leukemia): 55.1 nM
- TGI (HL-60(TB) leukemia): 2890 nM
- GI50 (HOP-62 NSCLC): 123 nM
- TGI (HOP-62 NSCLC): 1840 nM
- GI50 (HOP-92 NSCLC): 23.9 nM
- TGI (HOP-92 NSCLC): 81.5 nM
- GI50 (HS 578T breast): 44.5 nM
- TGI (HS 578T breast): 340 nM
- GI50 (HT29 colon): 23.6 nM
- TGI (HT29 colon): 439 nM
- GI50 (IGROV1 ovarian): 53.5 nM
- TGI (IGROV1 ovarian): 1620 nM
- GI50 (K-562 leukemia): 67.4 nM
- TGI (K-562 leukemia): 1140 nM
- GI50 (KM12 colon): 43.9 nM
- TGI (KM12 colon): 1800 nM
- GI50 (LOX IMVI melanoma): 16.3 nM
- TGI (LOX IMVI melanoma): 37.2 nM
- GI50 (M14 melanoma): 34 nM
- TGI (M14 melanoma): 1230 nM
- GI50 (MALME-3M melanoma): 456 nM
- TGI (MALME-3M melanoma): 2190 nM
- GI50 (MCF7 breast): 48.7 nM
- TGI (MCF7 breast): 1900 nM
- GI50 (MDA-MB-231 breast): 25.2 nM
- TGI (MDA-MB-231 breast): 274 nM
- GI50 (MDA-MB-435): 34.9 nM
- TGI (MDA-MB-435): 386 nM
- GI50 (MOLT-4 leukemia): 34.6 nM
- TGI (MOLT-4 leukemia): 3510 nM
- GI50 (NCI-H226 lung): 79.5 nM
- TGI (NCI-H226 lung): 1280 nM
- GI50 (NCI-H23 lung): 70.2 nM
- TGI (NCI-H23 lung): 1740 nM
- GI50 (NCI-H460 lung): 26.9 nM
- TGI (NCI-H460 lung): 1630 nM
- GI50 (NCI-H522 lung): 44.5 nM
- TGI (NCI-H522 lung): 637 nM
- GI50 (NCI/ADR-RES ovarian): 36.7 nM
- TGI (NCI/ADR-RES ovarian): 1420 nM
- GI50 (OVCAR-3 ovarian): 50 nM
- TGI (OVCAR-3 ovarian): 586 nM
- GI50 (OVCAR-4 ovarian): 53.1 nM
- TGI (OVCAR-4 ovarian): 4620 nM
- GI50 (OVCAR-5 ovarian): 144 nM
- TGI (OVCAR-5 ovarian): 1950 nM
- GI50 (OVCAR-8 ovarian): 39.7 nM
- TGI (OVCAR-8 ovarian): 1040 nM
- GI50 (PC-3 prostate): 63.3 nM
- TGI (PC-3 prostate): 4700 nM
- GI50 (RPMI-8226 leukemia): 223 nM
- TGI (RPMI-8226 leukemia): 2470 nM
- GI50 (RXF 393 renal): 58.4 nM
- TGI (RXF 393 renal): 1030 nM
- GI50 (SF-268 CNS): 60.8 nM
- TGI (SF-268 CNS): 5250 nM
- GI50 (SF-295 CNS): 26.4 nM
- TGI (SF-295 CNS): 123 nM
- GI50 (SF-539 CNS): 69 nM
- TGI (SF-539 CNS): 1530 nM
- GI50 (SK-MEL-2 melanoma): 20 nM
- TGI (SK-MEL-2 melanoma): 52.5 nM
- GI50 (SK-MEL-28 melanoma): 216 nM
- TGI (SK-MEL-28 melanoma): 1950 nM
- GI50 (SK-MEL-5 melanoma): 24.2 nM
- TGI (SK-MEL-5 melanoma): 77.3 nM
- GI50 (SK-OV-3 ovarian): 831 nM
- TGI (SK-OV-3 ovarian): 4650 nM
- GI50 (SN12C renal): 68 nM
- TGI (SN12C renal): 2010 nM
- GI50 (SNB-19 CNS): 866 nM
- TGI (SNB-19 CNS): 34900 nM
- GI50 (SNB-75 CNS): 80.5 nM
- TGI (SNB-75 CNS): 1960 nM
- GI50 (SR leukemia): 25.7 nM
- TGI (SR leukemia): 291 nM
- GI50 (SW-620 colon): 33.6 nM
- TGI (SW-620 colon): 1440 nM
- GI50 (T-47D breast): 52.2 nM
- TGI (T-47D breast): 1740 nM
- GI50 (TK-10 renal): 54.1 nM
- TGI (TK-10 renal): 2490 nM
- GI50 (U251 CNS): 35.5 nM
- TGI (U251 CNS): 820 nM
- GI50 (UACC-257 melanoma): 89.8 nM
- TGI (UACC-257 melanoma): 1870 nM
- GI50 (UACC-62 melanoma): 25 nM
- TGI (UACC-62 melanoma): 57.8 nM
- GI50 (UO-31 renal): 49.4 nM
- TGI (UO-31 renal): 175 nM
